One data set deals with T1, human PPARγ (Homo sapiens, UniProt P37231).
T1 construct: expressed in transfected cells; host or cells: NIH/3T3
T1 sequence (P37231 238-503 limits assumed): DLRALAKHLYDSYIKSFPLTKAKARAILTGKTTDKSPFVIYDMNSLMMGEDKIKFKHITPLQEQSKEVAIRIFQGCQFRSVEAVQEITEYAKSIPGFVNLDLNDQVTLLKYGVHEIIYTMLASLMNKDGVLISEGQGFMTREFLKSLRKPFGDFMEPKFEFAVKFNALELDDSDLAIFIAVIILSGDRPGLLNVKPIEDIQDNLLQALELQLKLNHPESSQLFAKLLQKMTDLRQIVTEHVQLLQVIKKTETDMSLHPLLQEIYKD
The experiment in a line: PPARγ activation test (GAL-4/luciferase reporter in NIH/3T3 cell). In kind it is cell-based. The conditions noted are these: luciferase activity, 24 hrs incubation. How it is done: The activity for PPARγ activation was examined as follows.
The vector fused with ligand binding domain of a human PPARγ gene and DNA binding site of a yeast GAL-4 gene, and luciferase reporter vector were simultaneously transfected in NIH/3T3 cell. The cells were cultured for 24 hrs. The solution containing the cells at a concentration of 2×10^4 cells/well was placed on a 96-well plate. Then, each of the test compounds of the present invention and the control group without test compounds was added thereto. After incubating for 24 hrs, the cells were subjected to lysis.
(In a reporter assay the amount or activity of a reporter protein is the signal.)

Data set [1] has as its system C57/BL6J mice. Kind of data set: Adverse side effects check (weight, heart weight, liver weight, GPT/GOT) in high fat diet C57/BL6J mice. The conditions noted are these: for GOT / GPT / Heart Weight / Liver Weight / Weight: high fat diet C57/BL6J mice.
Procedure: (§2) To check possible adverse side effects caused by the administration of the compound, the weight, heart weight and liver weight of each mouse were measured. GPT and GOT values were also calculated by employing a kit available in the market.
The subject of data set [2] is ob/ob mice. Particulars: relative to control. How it is done: The effectiveness in lowering blood glucose level of the inventive compound was examined using ob/ob mice (male, 8-9 week old), a type 2 diabetes model animals which expresses signs of hyperglycemia and hyperinsulinemia, bred in house facilities of Korea Research Institute of Chemical Technology.
(§1) The resulting solution was intraperitoneally administered to the mice at a dose of 50 mg/kg, once a day for 5 days, or orally administered to the mice, at a dose of 100 mg/kg, twice a day for 14 days. Days 1, 3 and 5 were selected for intraperitoneal administration, and days 5, 10 and 14, for oral administration, to collect blood samples for measuring the blood glucose levels. […] Upon the completion of the oral administration for 14 days, the mice were fasted for 16 hrs to perform OGTT (Oral Glucose Tolerance Test) to determine the changes in insulin sensitivity induced by the oral administration. After administrating glucose to the mice at a dose of 2 g/kg orally, blood samples were collected at 0, 15, 30 60 and 120 minutes to measure blood glucose levels.

Data set [3] concerns ob/ob mice. Particulars: total amount of blood glucose over 120 minutes after glucose 2 g/kg orally, after 14 days oral administration. The protocol:
as §1

Data set [4] has as its system C57/BL6J mice. The conditions noted are these: high fat diet C57/BL6J mice, after oral administration for 14 days once a day. The protocol:
as §1

Data set [5] concerns C57/BL6J mice.
Procedure: as §2
Setting [6] is: high fat diet C57/BL6J mice, oral administration for 14 days once a day.

Where two headings read alike, the source gives them in different places.

The source of these data is patent US7745439B2, “Indene derivatives and process for the preparation thereof” (Korea Research Institute of Chemical Technology, priority 2004, dated 2010).

As to `CCOC(=O)C1=C(c2ccccc2)c2ccc(OC)cc2C1(O)C(C)C` (centres unmarked) [Compound 3, 1-hydroxy-1-isopropyl-6-methoxy-3-phenyl-1H-indene-2-carboxylic acid ethyl ester], on human PPARγ, the concentration giving a half-maximal response (EC50) – broadly, the concentration needed to bring the measured effect to its halfway point – was 250 nM. That is a sub-micromolar value.

Compound `CCOC(=O)C1=C(c2ccccc2)c2ccc(OC)cc2C1(C)O` (centres unmarked) [Compound 4, 1-hydroxy-6-methoxy-1-methyl-3-phenyl-1H-indene-2-carboxylic acid ethyl ester] came in with an EC50 on human PPARγ of 230 nM. The EC50 values of the last two compounds are within 1.5-fold of each other.

At human PPARγ, `CCOC(=O)C1=C(c2ccccc2)c2ccc(OC)cc2C1(O)Cc1ccccc1` (centres unmarked) [Compound 5, 1-benzyl-1-hydroxy-6-methoxy-3-phenyl-1H-indene-2-carboxylic acid ethyl ester] had a concentration for a half-maximal effect (EC50) of 95 nM. Compared with the last compound, the EC50 is about 2.4-fold lower.

For `CCOC(=O)C1=C(c2ccccc2)c2ccc(OC)cc2C1(O)C1CCCCC1` (centres unmarked) [Compound 6, 1-cyclohexyl-1-hydroxy-6-methoxy-3-phenyl-1H-indene-2-carboxylic acid ethyl ester], on human PPARγ, the EC50 came to 50 nM. Against the preceding compound, the EC50 is about 1.9-fold lower.

Take `CCOC(=O)C1=C(c2ccccc2)c2ccc(OCCCc3ccccc3)cc2C1(O)c1ccccc1` (centres unmarked) [Compound 7, 1-hydroxy-1,3-diphenyl-6-(3-phenyl-propoxy)-1H-indene-2-carboxylic acid ethyl ester]: at human PPARγ, a half-maximal response (EC50) required 25 nM.

In the case of `CCOC(=O)C1=C(c2ccccc2)c2ccc(OCCN3CCOCC3)cc2C1(O)c1ccccc1` (centres unmarked) [Compound 8, 1-hydroxy-6-(2-morpholine-4-yl-ethoxy)-1,3-diphenyl-1H-indene-2-carboxylic acid ethyl ester], the melting point (in general, the temperature of the solid-liquid transition) lay within 121 to 123 °C. This compound also registered an EC50 on human PPARγ of 75 nM.

As to `CCOC(=O)C1=C(c2ccccc2)c2ccc(OCCc3ccccn3)cc2C1(O)c1ccccc1` (centres unmarked) [Compound 10, 1-hydroxy-1,3-diphenyl-6-(2-pyridine-2-yl-ethoxy)-1H-indene-2-carboxylic acid ethyl ester], it took 150 nM to reach a half-maximal effect at human PPARγ (EC50).

As for `N#CC1=C(c2ccccc2)c2ccc(OCCCc3ccccc3)cc2C1(O)c1ccccc1` (centres unmarked) [Compound 11, 1-hydroxy-1,3-diphenyl-6-(3-phenyl-propoxy)-1H-indene-2-carbonitrile], the EC50 on human PPARγ was 100 nM.

For `COc1ccc2c(c1)C(O)(Cc1ccccc1)C(C(=O)O)=C2c1ccccc1` (centres unmarked) [Compound 15, 1-benzyl-1-hydroxy-6-methoxy-3-phenyl-1H-indene-2-carboxylic acid], a half-maximal response on human PPARγ (EC50) required 230 nM. This EC50 lies about 2.3-fold higher than the previous one.

The compound `CCOC(=O)C1=C(c2ccccc2)c2ccc(OC)cc2C1OC` (centres unmarked) [Compound 18, 1,6-dimethoxy-3-phenyl-1H-indene-2-carboxylic acid ethyl ester] yielded an EC50 at human PPARγ of 45 nM.

As for `CCOC(=O)C1=C(c2ccccc2)c2ccc(OC)cc2C1OCC` (centres unmarked) [Compound 19, 1-ethoxy-6-methoxy-3-phenyl-1H-indene-2-carboxylic acid ethyl ester], on human PPARγ, the half-maximal effective concentration (EC50) was 20 nM. Compared with the last compound, the EC50 is about 2.2-fold lower.

As to `CCOC(=O)C1=C(c2ccccc2)c2ccc(OC)cc2C1NC(C)=O` (centres unmarked) [Compound 24, 1-acetylamino-6-methoxy-3-phenyl-1H-indene-2-carboxylic acid ethyl ester], the EC50 on human PPARγ worked out at 50 nM.

In the case of `CCOC(=O)C1=C(c2ccccc2)c2ccc(OC)cc2C1NC(=O)CC` (centres unmarked) [Compound 25, 6-methoxy-3-phenyl-1-propionylamino-1H-indene-2-carboxylic acid ethyl ester], at human PPARγ, the EC50 amounted to 12 nM.

The compound `CCOC(=O)C1=C(c2ccccc2)c2ccc(OCCCc3ccccc3)cc2C1NC(C)=O` (centres unmarked) [Compound 26, 1-acetylamino-3-phenyl-6-(3-phenyl-propoxy)-1H-indene-2-carboxylic acid ethyl ester] returned an EC50 at human PPARγ of 40 nM.

Regarding `CCOC(=O)C1=C(c2ccccc2)c2ccc(OC)cc2C1NC1CCCCC1` (centres unmarked) [Compound 32, 1-cyclohexyl amino-6-methoxy-3-phenyl-1H-indene-2-carboxylic acid ethyl ester], at human PPARγ, it took 250 nM to reach a half-maximal effect (EC50).

As to `CN(CCOc1ccc(CC2SC(=O)NC2=O)cc1)c1ccccn1` (centres unmarked) [Rosiglitazone, reference compound], in the data set on C57/BL6J mice [1], the GOT amounted to 40 ± 7.1 karmen, the GPT is recorded as 79 ± 8.3/ karmen, the “Heart Weight” value turned out to be 0.133 ± 0.004 g and the “Liver Weight” value was 1.35 ± 0.14 g. Besides, the Weight in the data set on C57/BL6J mice [1] is on record as 40 ± 1.6 g.

For `CCOC(=O)C1=C(c2ccccc2)c2ccc(OCCN3CCOCC3)cc2C1(O)c1ccccc1` (centres unmarked) [The Inventive Compound, 1-hydroxy-6-(2-morpholine-4-yl-ethoxy)-1,3-diphenyl-1H-indene-2-carbo-xylic acid ethyl ester], the “Side effects (summary in words)” value in the data set with C57/BL6J mice [1] (administered orally or intraperitoneally) was “no side effects such as weight gain, hepatotoxicity or cardiotoxicity”. For the same compound, in the data set with C57/BL6J mice [1], the GOT was 35 ± 6.2 karmen, the GPT is on record as 47 ± 6.5/ karmen, the “Heart Weight” value is 0.117 ± 0.012 g and the “Liver Weight” value stood at 1.22 ± 0.10 g. In the data set with C57/BL6J mice [1], the Weight is recorded as 37 ± 2.0 g. The “Extent of Inhibition (%) of blood glucose level” value in the data set with ob/ob mice [2] (Intraperitoneal Administration (50 mg/kg/day), once a day for 5 days) is listed as 32.0%. Moreover, in the data set with ob/ob mice [2] (Oral Administration (100 mg/kg/day), 14 days), the “Extent of Inhibition (%) of blood glucose level” value came out at 23.7%. In addition, the “Extent of Inhibition (%), Oral Glucose Tolerance Test (Blood Glucose)” value with ob/ob mice [3] is 10.2%. For the same compound, in the data set with C57/BL6J mice [4], the “Inhibition Ratio (%), Oral Glucose Tolerance Test (Glucose)” value is 23.8% and the “Inhibition Ratio (%), Oral Glucose Tolerance Test (Insulin)” value is on record as 56.2%. For the same compound, the “Effect in lowering blood glucose and insulin levels (summary in words)” value with C57/BL6J mice [5] (administered orally or intraperitoneally, Tables 6, 7 and 8) was “excellent effect in lowering both blood glucose and insulin levels”. In the data set on C57/BL6J mice [5] (setting [6]), the “Inhibition Ratio (%), Blood Insulin level” value is given as 44.6% and the “Inhibition Ratio (%), Blood glucose level” value stood at 30.0%.
